Values of other authors, collected in US20240238439A1, “HER3-BINDING ANTIBODY-DRUG CONJUGATE” (Hummingbird Bioscience Pte. Ltd., priority 2023, published 2024).

Details: subset of EGFR-mutant and TKI-resistant lung cancers, and metastatic breast cancers; cited from earlier work

**Q.** Which clinical responses does the source give for Patritumab-DXd here?
**A.** clinical responses have been observed
